US8507464B2, “Phosphoramidate alkylator prodrugs” (Threshold Pharmaceuticals, Inc., priority 2005, dated 2013)
Where two headings read alike, the source gives them in different places.

Tests used:
HT29 = assay: Clonogenic assay, hypoxia vs normoxia (Table 1B); details: Homo sapiens, HT-29, read-out: HT29 C H (clonogenic IC90, hypoxia)
HCT116 cells = assay: Multilayered cell culture (MCC) assay, inhibition of BrdU incorporation; type: cell-based; details: for IC50: Homo sapiens
Description: MCCs were incubated with oxygenated media (20% O2 & 5% O2) or hypoxic media (approximately 0% O2) and the test compound was exposed from one side (exposed surface, normoxic side) while the other side was temporarily closed off (far side, hypoxic side). When MCC's are incubated in media at 20% O2 or 5% O2 a gradient in oxygen develops from the surface exposed to the media towards the far surface of the culture. The furthest 50 μm of tissue becomes depleted of oxygen. The extent of O2 depletion is greater with 5% than the 20% O2 gassed media; incubation with 5% O2 reflects the in vivo situation most closely. Incubating MCCs with media at 0% O2 models perfusion limited hypoxia, where tumor blood vessels become completely depleted of oxygen and test compound must penetrate extensive distances to reach all cells. This situation therefore poses a greater barrier to drug penetration, if binding of activated drug acts to limit its penetration.
MCC based experiments were carried out with media gassed with 0, 5 or 20% O2 for 45 minutes prior to and during incubation with the test compound. HCT116 cells were grown to a thickness of 150 μm on a solid support and one side of the culture was clamped off to develop diffusion limited hypoxia. […] The cultures were incubated for a second hour in fresh media at 20% O2 and removed from the apparatus and returned to a normal growth chamber, where media flows over both sides of the MCC. Cultures were incubated for 24 hours prior to BrdUrd labeling and subsequent cryosectioning. BrdUrd labeling on the exposed and far sides of the MCC were analyzed using immunohistochemical staining, microscope imaging and computer image analysis to assess the effect of Compound 25 on cell proliferation.

HT29 cells = assay: Antiproliferation assay - oxygen dependence; type: cell-based; details: Homo sapiens
From the text: . […] The calculated IC50 values (μM) are tabulated in Table Y1 (H460 cells) or Table Y2 (HT29 cells) below.

NCI H460 xenograft = assay: H460 xenograft mouse model, 150 mg/kg weekly with CDDP (Example 53); type: in vivo
Description: Female CB17/SCID mice (purchased from Charles River, Cambridge, Mass.), 7-8 weeks of age, were allowed to acclimatize for at least three days, and handled under pathogen-free conditions. Human non-small cell lung cell line NCI H460 was obtained from the American Type Culture Collection. The cell lines were cultured and harvested as described in Example 47 and inoculated at 3×10^6 cells/animal in the peritoneal subcutaneous space. When the tumors grew to an average volume of 100 mm^3, treatment was initiated in which groups of 10 mice received vehicle (Group 1), CDDP at 6 mg/kg (IV one time, Group 2), Compound 25 at 150 mg/kg in saline, once a week for two weeks (i.p., Group 3), or the combination of the two agents (Group 4).

HT29 xenograft = assay: HT-29 xenograft mouse model with CDDP (Example 52); type: in vivo; details: for % Inhibition vs Group 1 / % Inhibition vs Group 2: tumor volumes at day 25; for % Inhibition vs Group 1: vs vehicle group, regimen per table
Description: Female CB17/SCID mice (purchased from Charles River, Cambridge, Mass.), 7-8 weeks of age, were allowed to acclimatize for at least three days, and handled under pathogen-free conditions. Human colon carcinoma cell line HT29 was obtained from the American Type Culture Collection. The cell lines were cultured and harvested as described in Example 47 and inoculated at 3×10^6 cells/animal in the peritoneal subcutaneous space. When the tumors grew to an average volume of 100 mm^3 (day 8), each group of mice (ten per group) was administered, for three weeks, as tabulated in the table below: Compound 25 in saline, administration route—i.p., administrated 2 h before CDDP on the days the combination therapy is scheduled and CDDP (in saline, IV).
The body weight and tumor volume were determined as described in Example 47. Data are based on tumor volumes at day 25 when tumors in the vehicle group had reached sufficient size to require that the mice be sacrificed.

[1] = Preliminary toxicity in mice (Example 56); type: in vivo
From the text: It is recognized that efficacious molecules for treatment of human diseases including cancer may be toxic at doses near or sometime much greater than doses necessary to achieve beneficial effects. To determine appropriate dose and route of administering such a compound, it is necessary to understand its toxicity. Routinely, initial approaches to determining the toxic dose involve the use of rodents such as mice to provide preliminary data that might support the design of similar studies in larger animals and humans. Test compounds (Compounds 24, 25 and 36) were tested in mice as preliminary experiments for determining doses to be used in larger animals. […] These doses selected represent an approximation of doses that might be used in larger animals such as rats and dogs for the purpose of confirming that such toxicities exist and for predicting if renal function should be measured in humans.

[2] = test system: mouse (MLM) liver microsomal proteins; type: in vitro ADME; details: Table 1, first study, 5 μM
[3] = Group 7, Compound 25 i.p. in combination with CDDP IV
[4] = Group 8, Compound 25 i.p. in combination with CDDP IV
[5] = Group 9, Compound 25 i.p. in combination with CDDP IV
[6] = Group 10, Compound 25 i.p. in combination with CDDP IV

Cn1c(COP(=O)(NCCCl)NCCCl)cnc1[N+](=O)[O-] [Compound 36]
IC90 (HT29): 3000 nM

Cn1c(COP(=O)(NCCBr)NCCBr)cnc1[N+](=O)[O-] [Compound 25]
fold reduction in exposure to the hypoxic side under 0% O2 relative to 5% O2 (HCT116 cells; 0% O2 vs 5% O2): Approximately 3 fold | fold more effective at inhibiting BrdU incorporation on the hypoxic side compared to the normoxic side (HCT116 cells; 5% O2): 10 fold | fold less compound required on the far (hypoxic) side compared to the exposed (normoxic) side (HCT116 cells; 20% O2): 5 fold | IC50 (HCT116 cells; HCT-116, read-out: IC50 (BrdU), Hypoxic side, 5% O2): 700 nM | IC50 (HCT116 cells; HCT-116, read-out: IC50 (BrdU), Hypoxic side, 20% O2): 2600 nM | IC50 (HCT116 cells; HCT-116, read-out: IC50 (BrdU), Normoxic side, 5% O2): 8000 nM | IC50 (HCT116 cells; HCT-116, read-out: IC50 (BrdU), Normoxic side, 20% O2): > 10000 nM | IC50 (HCT116 cells; HCT-116, read-out: IC50 (inhibit BrdU incorporation by 50%), Hypoxic side, 0% O2): ~1100 nM | IC50 (HCT116 cells; HCT-116, read-out: IC50 (BrdU), Normoxic side, 0% O2): ~1700 nM | IC50 (HT29 cells; HT-29, read-out: IC50 in HT29 cells, 0.6% O2): 25000 nM | IC50 (HT29 cells; HT-29, read-out: IC50 in HT29 cells, Air): > 100000 nM | IC50 (HT29 cells; HT-29, read-out: IC50 in HT29 cells, N2): 2000 nM | body weight (NCI H460 xenograft; 150 mg/kg once a week): Little change in body weight | tumor growth during the two week period of dosing (NCI H460 xenograft; 150 mg/kg once a week for two weeks, i.p.): complete inhibition of tumor growth | % Inhibition vs Group 1 (HT29 xenograft; Group 3, Compound 25 in saline i.p.): 28.2% | % Inhibition vs Group 1 (HT29 xenograft; Group 4, Compound 25 in saline i.p.): 30.1% | % Inhibition vs Group 1 (HT29 xenograft; Group 5, Compound 25 in saline i.p.): 31.3% | % Inhibition vs Group 1 (HT29 xenograft; Group 6, Compound 25 in saline i.p.): 48.1% | % Inhibition vs Group 2 (HT29 xenograft; [3]): 30.8% | % Inhibition vs Group 1 (HT29 xenograft; [3]): 50.7% | % Inhibition vs Group 2 (HT29 xenograft; [4]): 27.5% | % Inhibition vs Group 1 (HT29 xenograft; [4]): 44.2% | % Inhibition vs Group 2 (HT29 xenograft; [5]): 21.5% | % Inhibition vs Group 1 (HT29 xenograft; [5]): 36.2% | % Inhibition vs Group 2 (HT29 xenograft; [6]): 33.2% | % Inhibition vs Group 1 (HT29 xenograft; [6]): 51.8% | tumor growth (HT29 xenograft; monotherapy 50 and 100 mg/kg/day, various regimens, saline): inhibition of tumor growth | body weight (HT29 xenograft; more so in combination groups, recovered): modest body weight loss | white blood cells [1]: Transient reductions in white blood cells | toxicity at 300 mg/kg single dose ([1]; 300 mg/kg single dose): renal toxicities such as tubular necrosis and protein spillage into the urine | toxicity at lower doses (100 and 200 mg/kg) ([1]; 100 and 200 mg/kg): little toxicity | Metabolic stability (% at 30 min) MLM [2]: 89%
